Laboratory results: patent publication US20250144067A1, “PERSONALIZED STARVATION THERAPY FOR CANCER” (Faeth Therapeutics, Inc., priority 2021, published 2025)
Where a name gives a salt, the structure may show the parent alone.

Legend:
[1] = system: NCI-H292 lung cancer cells; assay: FDA drug screening, complete media vs cholesterol-free media without statin (TABLE 1); type: cell-based, human
[2] = system: NCI-H292 lung cancer cells; assay: FDA drug screening, complete media vs cholesterol-free media with simvastatin (TABLE 2); type: cell-based, human; settings: for Cholesterol-free media + simvastatin (0.04 μM) / Complete Media: NCI-H292 cells
[3] = Complete minus Cholesterol-free; >0 enhanced anti-cancer activity, about 0 neutral, <0 antagonist
[4] = NCI-H292 cells, cholesterol-free media without statin, FDA drug library screen
[5] = NCI-H292 cells, complete media, FDA drug library screen
[6] = cholesterol-free media with simvastatin 0.04 μM, FDA drug library screen (TABLE 2)
[7] = complete media, FDA drug library screen (TABLE 2)
[8] = complete media minus cholesterol-free media + simvastatin (0.04 μM), >0 enhanced anti-cancer activity, about 0 neutral, <0 antagonist
[9] = NCI-H292 cells, cholesterol-free media without statin
[10] = complete vs cholesterol-free media; greater than 0 enhanced anti-cancer activity, about 0 neutral, below 0 antagonists
[11] = cholesterol-free media with simvastatin 0.04 μM, cell growth value in FDA drug screen
[12] = complete media, cell growth value in FDA drug screen
[13] = complete media minus cholesterol-free media + simvastatin, >0 enhanced anti-cancer activity, about 0 neutral, <0 antagonist
[14] = NCI-H292 cells, FDA drug library screen, cholesterol-free media without statin
[15] = NCI-H292 cells, FDA drug library screen, complete media
[16] = complete media vs cholesterol-free media + simvastatin (0.04 μM), >0 enhanced anti-cancer activity, about 0 neutral, <0 antagonist
[17] = FDA library drug in cholesterol-free media with simvastatin 0.04 μM
[18] = FDA library drug in complete media

Compound | Difference [1, 3] | Cholesterol-free [1, 4] | Complete [1, 5] | Cholesterol-free media + simvastatin (0.04 μM) [2, 6] | Complete Media [2, 7] | Difference [2, 8] | Cholesterol-free [1, 9] | Complete ([1]; NCI-H292 cells, complete media) | Difference [2, 16] | Cholesterol-free media + simvastatin (0.04 μM) [2, 17] | Complete Media [2, 18] | other results
Cc1c(-c2ccccc2)oc2c(C(=O)OCCN3CCCCC3)cccc2c1=O [Flavoxate (hydrochloride)] | 0.01 | 0.984 | 0.9957 | 0.9542 | 0.8849 | −0.07 | – | – | – | – | – | –
O=c1[nH]c2ccccc2n1CCN1CCN(c2cccc(C(F)(F)F)c2)CC1 [Flibanserin] | – | – | – | – | – | – | 1.364 | 0.9648 | – | – | – | Difference [1, 10]: −0.40; Cholesterol-free media + simvastatin (0.04 μM) [2, 11]: 1.01; Complete Media [2, 12]: 1.089; Difference [2, 13]: 0.08
CCC(=O)c1c(O)cc(O)cc1O [Flopropione] | −0.07 | 1.019 | 0.9515 | 1.103 | 1.044 | −0.06 | – | – | – | – | – | –
CS(=O)(=O)c1ccc([C@@H](O)[C@@H](CF)NC(=O)C(Cl)Cl)cc1 [Florfenicol] | – | – | – | – | – | – | – | – | −0.14 | – | – | Difference ([1]; Complete minus Cholesterol-free; greater than 0 enhanced anti-cancer activity, about 0 neutral, below 0 antagonist): −0.13; Cholesterol-free [1, 14]: 0.8542; Complete [1, 15]: 0.7262; Cholesterol-free media + simvastatin (0.04 μM) ([2]; FDA drug library screen, cholesterol-free media with simvastatin 0.04 μM): 1.137; Complete Media ([2]; FDA drug library screen, complete media): 0.997
O=c1[nH]c(=O)n([C@H]2C[C@H](O)[C@@H](CO)O2)cc1F [Floxuridine] | −0.01 | 0.09159 | 0.08047 | 0.09098 | 0.02907 | −0.06 | – | – | – | – | – | –
COC(=O)Nc1nc2cc(C(=O)c3ccc(F)cc3)ccc2[nH]1 [Flubendazole] | – | 0.549 | 1.107 | 1.122 | 1.079 | −0.04 | – | – | – | – | – | Difference ([1]; complete vs cholesterol-free media; >0 enhanced anti-cancer activity, about 0 neutral, <0 antagonist): 0.56
Cc1onc(-c2c(F)cccc2Cl)c1C(=O)N[C@@H]1C(=O)N2[C@@H]1SC(C)(C)[C@@H]2C(=O)O [Flucloxacillin sodium] | −0.29 | – | – | – | – | – | 1.264 | 0.9693 | −0.30 | 1.127 | 0.8297 | –
OC(Cn1cncn1)(Cn1cncn1)c1ccc(F)cc1F [Fluconazole] | – | – | – | – | – | – | 1.23 | 0.8337 | −0.33 | 1.268 | 0.9392 | Difference [1, 10]: −0.40
Nc1[nH]c(=O)ncc1F [Flucytosine] | – | – | – | – | – | – | 1.247 | 0.8456 | −0.28 | 1.754 | 1.475 | Difference [1, 10]: −0.40
Nc1nc(F)nc2c1ncn2[C@@H]1O[C@H](CO)[C@@H](O)[C@@H]1O [Fludarabine] | – | – | – | 1.255 | 1.187 | – | – | – | – | – | – | Difference ([1]; Complete minus Cholesterol-free; […]): −0.15; Cholesterol-free [1, 14]: 1.174; Complete [1, 15]: 1.022; Difference ([2]; complete media minus cholesterol-free media + simvastatin (0.04 μM), […]): −0.07
CC(=O)OCC(=O)[C@@]1(O)CC[C@H]2[C@@H]3CCC4=CC(=O)CC[C@]4(C)[C@@]3(F)[C@@H](O)C[C@@]21C [Fludrocortisone acetate] | −0.30 | – | – | – | – | – | 0.7353 | 0.437 | – | – | – | Cholesterol-free media + simvastatin (0.04 μM) [2, 11]: 0.45; Complete Media [2, 12]: 0.5624; Difference [2, 13]: 0.11
O=C(O)c1ccccc1Nc1cccc(C(F)(F)F)c1 [Flufenamic acid] | −0.24 | – | – | – | – | – | 1.258 | 1.021 | −0.22 | – | – | Cholesterol-free media + simvastatin (0.04 μM) ([2]; drug in cholesterol-free media with simvastatin 0.04 μM): 1.298; Complete Media ([2]; drug in complete media): 1.077
CCOC(=O)c1ncn2c1CN(C)C(=O)c1cc(F)ccc1-2 [Flumazenil] | 0.05 | 1.073 | 1.128 | – | – | – | – | – | −0.43 | 1.268 | 0.8397 | –
